Measured values from EP4198033A1, “HETEROCYCLIC COMPOUNDS FOR THE CONTROL OF INVERTEBRATE PESTS” (priority 2021, dated 2023).

Key:
Type in all cases: in vivo
[1] = tested on: Diamond back moth (Plutella xylostella); experiment: Diamond back moth leaf-dip test on cabbage leaves; conditions: 72 h, read-out: mortality in comparison with untreated controls
Method: The active compound was dissolved at the desired concentration in a mixture of 1:1 (vol:vol) distilled water: acetone. Surfactant (Kinetic HV) was added at a rate of 0.01% (vol/vol). The test solution was prepared on the day of use.
Leaves of cabbage were dipped in test solution and air-dried. Treated leaves were placed in petri dishes lined with moist filter paper and inoculated with ten 3rd instar larvae. Mortality was recorded 72 hours after treatment. Feeding damages were also recorded using a scale of 0-100%.

[2] = tested on: Boll weevil (Anthonomus grandis); experiment: Boll weevil test, insect diet with eggs in 96-well microtiter plates; conditions: 120 h, egg and larval mortality, 5 days, read-out: mortality in comparison with untreated controls
Method: For evaluating control of boll weevil (Anthonomus grandis) the test unit consisted of 96-well-microtiter plates containing an insect diet and 5-10 A. grandis eggs.
The compounds were formulated using a solution containing 75% v/v water and 25% v/v DMSO. Different concentrations of formulated compounds were sprayed onto the insect diet at 5 µl, using a custom-built micro atomizer, at two replications.
After application, microtiter plates were incubated at about 25±1°C and about 75±5 % relative humidity for 5 days. Egg and larval mortality was then visually assessed.

[3] = tested on: Tobacco budworm (Heliothis virescens); experiment: Tobacco budworm test, insect diet with eggs in 96-well microtiter plates; conditions: 120 h, egg and larval mortality, 5 days, read-out: mortality in comparison with untreated controls
Method: For evaluating control of tobacco budworm (Heliothis virescens) the test unit consisted of 96-well-microtiter plates containing an insect diet and 15-25 H. virescens eggs.
The compounds were formulated using a solution containing 75% v/v water and 25% v/v DMSO. Different concentrations of formulated compounds were sprayed onto the insect diet at 10 µl using a custom-built micro atomizer, at two replications.
After application, microtiter plates were incubated at about 28±1°C and about 80±5 % relative humidity for 5 days. Egg and larval mortality was then visually assessed.

[4] = tested on: Yellow fever mosquito (Aedes aegypti); experiment: whole plant or invertebrate; conditions: 48 h, larval mortality, 2 days, read-out: mortality in comparison with untreated controls
Method: For evaluating control of yellow fever mosquito (Aedes aegypti) the test unit consisted of 96-well-microtiter plates containing 200µl of tap water per well and 5-15 freshly hatched A. aegypti larvae.
The active compounds were formulated using a solution containing 75% (v/v) water and 25% (v/v) DMSO. Different concentrations of formulated compounds or mixtures were sprayed onto the insect diet at 2.5µl, using a custom-built micro atomizer, at two replications.
After application, microtiter plates were incubated at 28±1 °C, 80±5 % RH for 2 days. Larval mortality was then visually assessed.

[5] = tested on: Southern armyworm (Spodoptera eridania), 2nd instar larvae; experiment: Southern armyworm foliar spray test on lima bean plants; conditions: 96 h, 4 days after treatment, read-out: mortality in comparison with untreated controls
Method: The active compounds were formulated by a Tecan liquid handler in 100% cyclohexanone as a 10,000-ppm solution supplied in tubes. The 10,000-ppm solution was serially diluted in 100% cyclohexanone to make interim solutions. These served as stock solutions for which final dilutions were made by the Tecan in 50% acetone:50% water (v/v) into 10 or 20ml glass vials. A nonionic surfactant (Kinetic®) was included in the solution at a volume of 0.01% (v/v). The vials were then inserted into an automated electrostatic sprayer equipped with an atomizing nozzle for application to plants/insects. Lima bean plants (variety Sieva) were grown 2 plants to a pot and selected for treatment at the 1st true leaf stage. Test solutions were sprayed onto the foliage by an automated electrostatic plant sprayer equipped with an atomizing spray nozzle. The plants were dried in the sprayer fume hood and then removed from the sprayer. Each pot was placed into perforated plastic bags with a zip closure. Ten to 11 armyworm larvae were placed into the bag and the bags zipped closed. Test plants were maintained in a growth room at about 25°C and about 20-40% relative humidity for 4 days, avoiding direct exposure to fluorescent light (14:10 light:dark photoperiod) to prevent trapping of heat inside the bags. Mortality and reduced feeding were assessed 4 days after treatment, compared to untreated control plants.

[6] = tested on: Green Peach Aphid (Myzus persicae); experiment: Green peach aphid systemic test, artificial diet in 96-well microtiter plates; conditions: 72 h, adult aphids, 3 days, read-out: mortality in comparison with untreated controls
Text: For evaluating control of green peach aphid (Myzus persicae) through systemic means the test unit consisted of 96-well-microtiter plates containing liquid artificial diet under an artificial mem brane.
The compounds were formulated using a solution containing 75% v/v water and 25% v/v DMSO. Different concentrations of formulated compounds were pipetted into the aphid diet, using a custom built pipetter, at two replications.
After application, 5-8 adult aphids were placed on the artificial membrane inside the microtiter plate wells. The aphids were then allowed to suck on the treated aphid diet and incubated at about 23±1°C and about 50±5 % relative humidity for 3 days. Aphid mortality and fecundity was then visually assessed.

CC(NC(=O)c1cc(Br)cc(C(F)(F)F)c1)c1ocnc1-c1ncc(OC(F)F)cn1 (centres unmarked) [I-1, 3-bromo-N-[1-[4-[5-(difluoromethoxy)pyrimidin-2-yl]oxazol-5-yl]ethyl]-5-(trifluoromethyl)benzamide]
≥ 75%: mortality at 300 ppm [1] | mortality at 2500 ppm [2] | mortality at 2500 ppm [3] | mortality at 2500 ppm [4] | mortality at 300 ppm [5]

CC(NC(=O)c1cc(OC(F)F)cc(C(F)(F)F)c1)c1ncoc1-c1ncccn1 (centres unmarked) [I-3, 3-(difluoromethoxy)-N-[1-(5-pyrimidin-2-yloxazol-4-yl)ethyl]-5-(trifluoromethyl)benzamide]
≥ 75%: mortality at 2500 ppm [6] | mortality at 2500 ppm [2] | mortality at 2500 ppm [4] | mortality at 300 ppm [5]

CCN(C(=O)c1cc(OC(F)F)cc(C(F)(F)F)c1)C(C)c1ncoc1-c1ncccn1 (centres unmarked) [I-5, 3-(difluoromethoxy)-N-ethyl-N-[1-(5-pyrimidin-2-yloxazol-4-yl)ethyl]-5-(trifluoromethyl)benzamide]
≥ 75%: mortality at 2500 ppm [6] | mortality at 2500 ppm [2]
